Species on record: Rattus norvegicus
Experiment: DrugMatrix - Regimen: Daily Repeat
Format: toxicity, organism-based, Sprague-Dawley
Parameters: regimen Daily Repeat, gender Male, age 6-8 weeks
Conditions: in vivo, sc, route subcutaneous, […]; for ABSOLUTE BASOPHIL / ABSOLUTE EOSINOPHIL / ABSOLUTE LYMPHOCYTE / ABSOLUTE MONOCYTE / ABSOLUTE SEGMENTED NEUTROPHIL / BASOPHIL / EOSINOPHIL / ERYTHROCYTE COUNT / HEMATOCRIT / HEMOGLOBIN / LEUKOCYTE COUNT / LYMPHOCYTE / MEAN CORPUSCULAR HEMOGLOBIN / MEAN CORPUSCULAR HEMOGLOBIN CONCENTRATION / MEAN CORPUSCULAR VOLUME / MONOCYTE / NEUTROPHIL / NUCLEATED RED BLOOD CELLS / PLATELET COUNT: tissue Blood; for ALANINE AMINOTRANSFERASE / ALBUMIN / ALKALINE PHOSPHATASE / ASPARTATE AMINOTRANSFERASE / BLOOD UREA NITROGEN / CARBON DIOXIDE / CHLORIDE / CHOLESTEROL / CREATINE PHOSPHOKINASE / CREATININE / GLUCOSE / LACTATE DEHYDROGENASE / LIPASE / PHOSPHORUS / POTASSIUM / SODIUM / TOTAL BILIRUBIN / TOTAL PROTEIN / URIC ACID: tissue Plasma
[1] = 0 mg/kg, 72 h, dose level Control, time 3 day
[2] = 0 mg/kg, 120 h, dose level Control, time 5 day
[3] = 50 mg/kg, 72 h, dose level Low, time 3 day

CCCCOC(=O)c1ccc(N)cc1 [BUTAMBEN]
ABSOLUTE BASOPHIL [1]: 0 CELLS/uL | ABSOLUTE EOSINOPHIL [1]: 42.67 CELLS/uL | ABSOLUTE LYMPHOCYTE [1]: 10202 CELLS/uL | ABSOLUTE MONOCYTE [1]: 261.5 CELLS/uL | ABSOLUTE SEGMENTED NEUTROPHIL [1]: 2193.83 CELLS/uL | BASOPHIL [1]: 0% | EOSINOPHIL [1]: 0.33% | ERYTHROCYTE COUNT [1]: 5.63 x10E6/uL | HEMATOCRIT [1]: 35.35% | HEMOGLOBIN [1]: 13.07 G/DL | LEUKOCYTE COUNT [1]: 12.7 x10E3/uL | LYMPHOCYTE [1]: 81.17% | MEAN CORPUSCULAR HEMOGLOBIN [1]: 23.23 pg | MEAN CORPUSCULAR HEMOGLOBIN CONCENTRATION [1]: 36.97 G/DL | MEAN CORPUSCULAR VOLUME [1]: 62.82 fL | MONOCYTE [1]: 2% | NEUTROPHIL [1]: 16.5% | NUCLEATED RED BLOOD CELLS [1]: 0 /100WBC | PLATELET COUNT [1]: 1180.33 x10E3/uL | ALANINE AMINOTRANSFERASE [1]: 48.67 u/L | ALBUMIN [1]: 4.08 G/DL | ALKALINE PHOSPHATASE [1]: 360.67 u/L | ASPARTATE AMINOTRANSFERASE [1]: 85.5 u/L | BLOOD UREA NITROGEN [1]: 17.83 mg/dL | CARBON DIOXIDE [1]: 26.17 mmol/L | CHLORIDE [1]: 101.83 MEQ/L | CHOLESTEROL [1]: 71 mg/dL | CREATINE PHOSPHOKINASE [1]: 515.17 u/L | CREATININE [1]: 0.22 mg/dL | GLUCOSE [1]: 192.5 mg/dL | LACTATE DEHYDROGENASE [1]: 214.67 u/L | LIPASE [1]: 8.5 u/L | PHOSPHORUS [1]: 12.95 mg/dL | POTASSIUM [1]: 6.39 MEQ/L | SODIUM [1]: 142.38 MEQ/L | TOTAL BILIRUBIN [1]: 0.18 mg/dL | TOTAL PROTEIN [1]: 5.95 G/DL | URIC ACID [1]: 1.83 mg/dL | ABSOLUTE BASOPHIL [2]: 0 CELLS/uL | ABSOLUTE EOSINOPHIL [2]: 188.5 CELLS/uL | ABSOLUTE LYMPHOCYTE [2]: 12360.83 CELLS/uL | ABSOLUTE MONOCYTE [2]: 64.33 CELLS/uL | ABSOLUTE SEGMENTED NEUTROPHIL [2]: 1986.33 CELLS/uL | BASOPHIL [2]: 0% | EOSINOPHIL [2]: 1.33% | ERYTHROCYTE COUNT [2]: 5.52 x10E6/uL | HEMATOCRIT [2]: 35.82% | HEMOGLOBIN [2]: 13.25 G/DL | LEUKOCYTE COUNT [2]: 14.6 x10E3/uL | LYMPHOCYTE [2]: 84.5% | MEAN CORPUSCULAR HEMOGLOBIN [2]: 24.05 pg | MEAN CORPUSCULAR HEMOGLOBIN CONCENTRATION [2]: 36.98 G/DL | MEAN CORPUSCULAR VOLUME [2]: 64.97 fL | MONOCYTE [2]: 0.5% | NEUTROPHIL [2]: 13.67% | NUCLEATED RED BLOOD CELLS [2]: 0 /100WBC | PLATELET COUNT [2]: 1297.83 x10E3/uL | ALANINE AMINOTRANSFERASE [2]: 51.17 u/L | ALBUMIN [2]: 4.08 G/DL | ALKALINE PHOSPHATASE [2]: 393.17 u/L | ASPARTATE AMINOTRANSFERASE [2]: 111 u/L | BLOOD UREA NITROGEN [2]: 18.17 mg/dL | CARBON DIOXIDE [2]: 25 mmol/L | CHLORIDE [2]: 105.17 MEQ/L | CHOLESTEROL [2]: 65.5 mg/dL | CREATINE PHOSPHOKINASE [2]: 911.5 u/L | CREATININE [2]: 0.21 mg/dL | GLUCOSE [2]: 183 mg/dL | LACTATE DEHYDROGENASE [2]: 189 u/L | LIPASE [2]: 8.33 u/L | PHOSPHORUS [2]: 12.78 mg/dL | POTASSIUM [2]: 6.05 MEQ/L | SODIUM [2]: 144.57 MEQ/L | TOTAL BILIRUBIN [2]: 0.25 mg/dL | TOTAL PROTEIN [2]: 5.83 G/DL | URIC ACID [2]: 1.58 mg/dL | ABSOLUTE BASOPHIL [3]: 0 CELLS/uL | ABSOLUTE EOSINOPHIL [3]: 143.67 CELLS/uL | ABSOLUTE LYMPHOCYTE [3]: 12216.67 CELLS/uL | ABSOLUTE MONOCYTE [3]: 393.33 CELLS/uL | ABSOLUTE SEGMENTED NEUTROPHIL [3]: 2079.67 CELLS/uL | BASOPHIL [3]: 0% | EOSINOPHIL [3]: 1% | ERYTHROCYTE COUNT [3]: 5.53 x10E6/uL | HEMATOCRIT [3]: 33.47% | HEMOGLOBIN [3]: 12.13 G/DL | LEUKOCYTE COUNT [3]: 14.83 x10E3/uL | LYMPHOCYTE [3]: 82.33% | MEAN CORPUSCULAR HEMOGLOBIN [3]: 21.93 pg | MEAN CORPUSCULAR HEMOGLOBIN CONCENTRATION [3]: 36.23 G/DL | MEAN CORPUSCULAR VOLUME [3]: 60.5 fL | MONOCYTE [3]: 2.67% | NEUTROPHIL [3]: 14% | NUCLEATED RED BLOOD CELLS [3]: 0 /100WBC | PLATELET COUNT [3]: 1210 x10E3/uL | ALANINE AMINOTRANSFERASE [3]: 56.33 u/L | ALBUMIN [3]: 3.9 G/DL | ALKALINE PHOSPHATASE [3]: 352 u/L | ASPARTATE AMINOTRANSFERASE [3]: 93.33 u/L | BLOOD UREA NITROGEN [3]: 15.67 mg/dL | CARBON DIOXIDE [3]: 27 mmol/L | CHLORIDE [3]: 103.67 MEQ/L | CHOLESTEROL [3]: 75.33 mg/dL | CREATINE PHOSPHOKINASE [3]: 408 u/L | CREATININE [3]: 0.24 mg/dL | GLUCOSE [3]: 178.67 mg/dL | LACTATE DEHYDROGENASE [3]: 150.67 u/L | LIPASE [3]: 8.33 u/L | PHOSPHORUS [3]: 12.53 mg/dL | POTASSIUM [3]: 5.89 MEQ/L | SODIUM [3]: 144.57 MEQ/L | TOTAL BILIRUBIN [3]: 0.2 mg/dL | TOTAL PROTEIN [3]: 5.57 G/DL | URIC ACID [3]: 1.43 mg/dL

— ChEMBL document CHEMBL3885881, “DrugMatrix”
